Read-outs that look alike come from different tables or passages of the source.
Columns and labels:
Type in all cases: biochemical
Pim-1 = biological target: T1, Pim-1 (Homo sapiens, UniProt P11309); assay: TR-FRET assay, Pim-1 kinase (phosphorylation of Bad Ser112); conditions: read-out: IC50 Pim1
T1 construct: His6-labelled recombinant full-length human Pim-1, Pim-2 or Pim-3 protein; His6; made in house
Protocol: (§1) In order to determine the inhibition of activation of Pim kinases, the compounds of the invention are tested in accordance with a routinely used in vitro TR-FRET assay (Time-Resolved Fluorescence Resonance Energy Transfer). […] For the assay, the following reagents are used:
(§2) Pim kinase—His6-labelled recombinant full-length human Pim-1, Pim-2 or Pim-3 protein (prepared according to J. Mol. Biol. (2005) 348, 183-193); Bad—His6-labelled recombinant full-length human Bad protein (prepared according to J. Mol. Biol. (2005) 348, 183-193); α-His6-APC—murine monoclonal antibody conjugated to allophycocyanin SureLight™ directed against the His6 label (Perkin-Elmer, No. AD0059H, Waltham, Mass., United States); • β-P˜Bad-Eu—murine monoclonal antibody (Cell Signaling Technology #9296B, Danvers, Mass., United States) directed against phosphoBad (Ser112) (7E11) custom-labelled by Perkin-Elmer with the reagent LANCE™ Eu-W1024.
(§3) The assay is based on Perkin-Elmer's LANCE™ technology: the Eu-labelled antibody binds to phospho-Ser112 and generates a TR-FRET signal by interaction with the APC-labelled antibody directed against His6, bound to the His6 label of Bad. The TR-FRET signal is detected using a SpectraMax M5 plate reader (Molecular Devices) with the following settings: λex=340 nm, λem1=615 nm, λem2=665 nm. The ratio of the fluorescence signal at 665 nm to the fluorescence signal at 615 nm is used as the signal reading for the IC50 (calculation is based on the 4-parameter logistic model). The assay is performed in a 384-well format; the liquid manipulations are performed using a Beckman 3000 liquid manipulations station. The test compounds are tested at 10 concentration points in duplicate; the highest compound concentration is typically equal to 30 μM. The ATP concentration is equal to 40 μM, which is equivalent to the apparent KM value.

Pim-2 = biological target: T2, Pim-2 (Homo sapiens, UniProt Q9P1W9); assay: TR-FRET assay, Pim-2 kinase (phosphorylation of Bad Ser112); conditions: read-out: IC50 Pim2
T2 construct: His6-labelled recombinant full-length human Pim-1, Pim-2 or Pim-3 protein; His6; made in house
Protocol: as §1, §2, §3

Pim-3 = biological target: T3, Pim-3 (Homo sapiens, UniProt Q86V86); assay: TR-FRET assay, Pim-3 kinase (phosphorylation of Bad Ser112); conditions: read-out: IC50 Pim3
T3 construct: His6-labelled recombinant full-length human Pim-1, Pim-2 or Pim-3 protein; His6; made in house
Protocol: as §1, §2, §3

[1] = comparative compounds (Compound No., not claimed)

T1 sequence (P11309 whole entry): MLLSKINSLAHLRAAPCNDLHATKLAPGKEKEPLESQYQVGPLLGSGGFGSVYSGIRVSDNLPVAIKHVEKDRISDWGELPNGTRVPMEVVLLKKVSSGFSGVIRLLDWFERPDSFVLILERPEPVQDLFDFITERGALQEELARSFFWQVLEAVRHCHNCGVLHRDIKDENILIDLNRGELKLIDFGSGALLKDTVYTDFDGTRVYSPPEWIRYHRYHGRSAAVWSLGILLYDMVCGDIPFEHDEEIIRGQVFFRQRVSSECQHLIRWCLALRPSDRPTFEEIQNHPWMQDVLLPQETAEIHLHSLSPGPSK
T2 sequence (Q9P1W9 whole entry): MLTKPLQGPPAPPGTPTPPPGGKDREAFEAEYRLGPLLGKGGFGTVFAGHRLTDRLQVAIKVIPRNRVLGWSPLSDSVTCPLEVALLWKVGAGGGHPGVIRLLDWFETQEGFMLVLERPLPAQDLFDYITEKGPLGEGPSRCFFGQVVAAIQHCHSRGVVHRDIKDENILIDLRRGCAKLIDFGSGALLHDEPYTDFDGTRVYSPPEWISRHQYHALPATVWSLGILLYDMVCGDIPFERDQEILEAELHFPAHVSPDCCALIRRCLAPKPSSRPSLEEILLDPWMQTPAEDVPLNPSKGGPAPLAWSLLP

Compound	IC50 (Pim-1; [1])	IC50 (Pim-2; [1])	IC50 (Pim-3; [1])	IC50 (Pim-1; TR-FRET, ATP 40 μM)	IC50 (Pim-2; TR-FRET, ATP 40 μM)	IC50 (Pim-3; TR-FRET, ATP 40 μM)
COc1cc2c(cn1)[nH]c1cnc(-c3cccnc3)cc12 [Compound 51]	> 5000 nM	> 5000 nM	> 5000 nM	–	–	–
c1cncc(-c2cnc3[nH]c4ncccc4c3c2)c1 [Compound 56]	> 5000 nM	> 5000 nM	> 5000 nM	–	–	–
COC(=O)c1cnc2[nH]c3cnc(-c4cccnc4)cc3c2c1 [Example 3, methyl 6-(pyrid-3-yl)-9H-pyrrolo[2,3-b:5,4-c′]dipyridine-3-carboxylate]	–	–	–	100 to 1000 nM	–	–
CCOC(=O)c1cnc2[nH]c3cnc(-c4cccnc4)cc3c2c1 [Example 4, ethyl 6-(pyrid-3-yl)-9H-pyrrolo [2,3-b:5,4-c′] dipyridine-3-carboxylate]	–	–	–	1 to 100 nM	1000 to 5000 nM	100 to 1000 nM
Brc1cnc2[nH]c3cnc(-c4cccnc4)cc3c2c1 [Example 9, 3-bromo-6-(pyrid-3-yl)-9H-pyrrolo[2,3-b:5,4-c′]dipyridine]	–	–	–	100 to 1000 nM	1000 to 5000 nM	100 to 1000 nM
CCN(CC)c1cnc2[nH]c3cnc(-c4cccnc4)cc3c2c1 [Example 11, N,N-diethyl-6-(pyrid-3-yl)-9H-pyrrolo[2,3-b:5,4-c′]dipyrid-3-amine]	–	–	–	1000 to 5000 nM	–	–
CN(CCCC(=O)N1CCCC1)c1cnc2[nH]c3cnc(-c4cccnc4)cc3c2c1 [Example 12, 4-{methyl[6-(pyrid-3-yl)-9H-pyrrolo-[2,3-b:5,4-c′]dipy-rid-3-yl]amino}-1-(pyrrolidin-1-yl)-butan-1-one]	–	–	–	100 to 1000 nM	–	–
Clc1cnc2[nH]c3cnc(-c4cccnc4)cc3c2c1 [Example 13, 3-chloro-6-(pyrid-3-yl)-9H-pyrrolo[2,3-b:5,4-c′]dipyridine]	–	–	–	100 to 1000 nM	1000 to 5000 nM	100 to 1000 nM
CC(C)(O)c1cnc2[nH]c3cnc(-c4cccnc4)cc3c2c1 [Example 16, 2-[6-(pyrid-3-yl)-9H-pyrrolo[2,3-b:5,4-c′]dipyrid-3-yl]propan-2-ol]	–	–	–	1000 to 5000 nM	1000 to 5000 nM	100 to 1000 nM
OCc1cnc2[nH]c3cnc(-c4cccnc4)cc3c2c1 [Example 17, [6-(pyrid-3-yl)-9H-pyrrolo[2,3-b:5,4-c′]dipyrid-3-yl]methanol]	–	–	–	100 to 1000 nM	> 5000 nM	100 to 1000 nM
CC(C)COC(=O)c1cnc2[nH]c3cnc(-c4cccnc4)cc3c2c1 [Example 18, 2-methylpropyl 6-(pyrid-3-yl)-9H-pyrrolo[2,3-b:5,4-c′]dipyridine-3-carboxylate]	–	–	–	1 to 100 nM	> 5000 nM	100 to 1000 nM
O=C(O)c1cnc2[nH]c3cnc(-c4cccnc4)cc3c2c1 [Example 19, 6-(pyrid-3-yl)-9H-pyrrolo[2,3-b:5,4-c′]dipyridine-3-carboxylic acid]	–	–	–	100 to 1000 nM	–	–
Fc1cnc2[nH]c3cnc(-c4cccnc4)cc3c2c1I [Example 20, 3-fluoro-4-iodo-6-(pyrid-3-yl)-9H-pyrrolo[2,3-b:5,4-c′]dipyridine]	–	–	–	1 to 100 nM	–	–
Fc1cnc2[nH]c3cnc(-c4cccnc4)cc3c2c1/C=C/c1ccccc1 [Example 24, 3-fluoro-4-[(E)-2-phenylethenyl]-6-(pyrid-3-yl)-9H-pyrrolo[2,3-b:5,4-c′]dipyridine]	–	–	–	100 to 1000 nM	> 5000 nM	1000 to 5000 nM
Fc1cc(F)cc(-c2c(F)cnc3[nH]c4cnc(-c5cccnc5)cc4c23)c1 [Example 25, 4-(3,5-difluorophenyl)-3-fluoro-6-(pyrid-3-yl)-9H-pyrrolo [2,3-b:5,4-c′]-dipyridine]	–	–	–	1 to 100 nM	> 5000 nM	100 to 1000 nM
CCOC(=O)/C=C/c1c(F)cnc2[nH]c3cnc(-c4cccnc4)cc3c12 [Example 29, ethyl (2E)-3-[3-fluoro-6-(pyrid-3-yl)-9H-pyrrolo-[2,3-b:5,4-c′]dipyrid-4-yl]prop-2-enoate]	–	–	–	100 to 1000 nM	> 5000 nM	100 to 1000 nM

Compound	IC50 (Pim-1; [1])	IC50 (Pim-2; [1])	IC50 (Pim-3; [1])	IC50 (Pim-1; TR-FRET, ATP 40 μM)	IC50 (Pim-2; TR-FRET, ATP 40 μM)	IC50 (Pim-3; TR-FRET, ATP 40 μM)
OCC(O)CCc1c(F)cnc2[nH]c3cnc(-c4cccnc4)cc3c12 (centres unmarked) [Example 30, 4-(3-fluoro-6-(pyrid-3-yl)-9H-pyrrolo[2,3-b:5,4-c′]dipyrid-4-yl]butane-1,2-diol]	–	–	–	1 to 100 nM	1000 to 5000 nM	100 to 1000 nM
Fc1cnc2[nH]c3cnc(-c4cccnc4)cc3c2c1-c1cccc(N2CCOCC2)c1 [Example 31, 3-fluoro-4-[3-(morpholin-4-yl)phenyl]-6-(pyrid-3-yl)-9H-pyrrolo [2,3-b:5,4-c′]dipyridine]	–	–	–	100 to 1000 nM	> 5000 nM	1000 to 5000 nM
CN(C(=O)c1c(F)cnc2[nH]c3cnc(-c4cccnc4)cc3c12)c1ccccc1 [Example 35, 3-fluoro-N-methyl-N-phenyl-6-(pyrid-3-yl)-9H-pyrrolo[2,3-b:5,4-c′]-dipyridine-4-carboxamide]	–	–	–	100 to 1000 nM	> 5000 nM	1000 to 5000 nM
Fc1cnc2[nH]c3cnc(-c4cccnc4)cc3c2c1Cl [Example 37, 4-chloro-3-fluoro-6-(pyrid-3-yl)-9H-pyrrolo[2,3-b:5,4-c′]dipyridine]	–	–	–	100 to 1000 nM	> 5000 nM	1000 to 5000 nM
Cc1c(F)cnc2[nH]c3cnc(-c4cccnc4)cc3c12 [Example 38, 4-methyl-3-fluoro-6-(pyrid-3-yl)-9H-pyrrolo[2,3-b:5,4-c′]dipyridine]	–	–	–	100 to 1000 nM	> 5000 nM	100 to 1000 nM
Fc1ccc(-c2cc3c(cn2)[nH]c2ncccc23)cn1 [Example 41, 6-(6-fluoropyrid-3-yl)-9H-pyrrolo[2,3-b:5,4-c′]dipyridine]	–	–	–	1000 to 5000 nM	> 5000 nM	> 5000 nM
Fc1cncc(-c2cc3c(cn2)[nH]c2ncccc23)c1 [Example 42, 6-(5-fluoropyrid-3-yl)-9H-pyrrolo[2,3-b:5,4-c′]dipyridine]	–	–	–	1000 to 5000 nM	–	–
O=S(=O)(Nc1ccc(-c2c(F)cnc3[nH]c4cnc(-c5cccnc5)cc4c23)cc1)C1CC1 [Example 46, N-{4-[3-fluoro-6-(pyrid-3-yl)-9H-pyrrolo[2,3-b:5,4-c′]dipyrid-4-yl]phenyl}cyclo-propanesulfonamide]	–	–	–	1 to 100 nM	100 to 1000 nM	1 to 100 nM
COc1ccc(-c2c(F)cnc3[nH]c4cnc(-c5cccnc5)cc4c23)cn1 [Example 52, 3-fluoro-4-(6-methoxypyrid-3-yl)-6-(pyrid-3-yl)-9H-pyrrolo[2,3-b:5,4-c′]-dipyridine]	–	–	–	100 to 1000 nM	> 5000 nM	100 to 1000 nM
CS(=O)(=O)Nc1cccc(-c2c(F)cnc3[nH]c4cnc(-c5cccnc5)cc4c23)c1 [Example 53, N-{3-[3-fluoro-6-(pyrid-3-yl)-9H-pyrrolo[2,3-b:5,4-c′]-dipyrid-4-yl]phenyl}-methanesulfonamide]	–	–	–	1 to 100 nM	1000 to 5000 nM	100 to 1000 nM
Cc1csc(-c2c(F)cnc3[nH]c4cnc(-c5cccnc5)cc4c23)c1 [Example 54, 3-fluoro-4-(4-methylthiophen-2-yl)-6-(pyrid-3-yl)-9H-pyrrolo[2,3-b:5,4-c′]dipyridine]	–	–	–	1 to 100 nM	> 5000 nM	100 to 1000 nM
Fc1cnc2[nH]c3cnc(-c4cccnc4)cc3c2c1-c1ccc2cc[nH]c2c1 [Example 55]	–	–	–	1 to 100 nM	1000 to 5000 nM	100 to 1000 nM
CC(C)(C)OC(=O)N1CCN(c2ccc(-c3cnc4[nH]c5cnc(-c6cccnc6)cc5c4c3)cc2)CC1 [Example 129, 2-methyl-2-propyl 4-{4-[6-(pyrid-3-yl)-9H-pyrrolo[2,3-b:5,4-c′]dipyrid-3-yl]phenyl}-piperazine-1-carboxylate]	–	–	–	100 to 1000 nM	–	100 to 1000 nM
CC(C)(C)OC(=O)N1CCN(c2cccc(-c3cnc4[nH]c5cnc(-c6cccnc6)cc5c4c3)c2)CC1 [Example 131, 2-methyl-2-propyl 4-{3-[6-(pyrid-3-yl)-9H-pyrrolo[2,3-b:5,4-c′]dipyrid-3-yl]phenyl}piperazine-1-carboxylate]	–	–	–	100 to 1000 nM	–	100 to 1000 nM
CCc1cc(N(CC)CC)ncc1-c1cnc2[nH]c3cnc(-c4cccnc4)cc3c2c1 [Example 133, N,N-4-triethyl-5-[6-(pyrid-3-yl)-9H-pyrrolo[2,3-b:5,4-c′]dipyrid-3-yl]pyrid-2-amine]	–	–	–	1 to 100 nM	–	100 to 1000 nM
CC(C)(C)OC(=O)N1CCN(c2cc(-c3cnc4[nH]c5cnc(-c6cccnc6)cc5c4c3)ccn2)CC1 [Example 143, 2-methyl-2-propyl 4-{4-[6-(pyrid-3-yl)-9H-pyrrolo[2,3-b:5,4-c′]dipyrid-3-yl]pyrid-2-yl}piperazine-1-carboxylate]	–	–	–	100 to 1000 nM	–	100 to 1000 nM

From patent US20110178053A1, “AZACARBOLINE DERIVATIVES, PREPARATION METHOD THEREOF AND THERAPEUTIC USE OF SAME” (SANOFI-AVENTIS, priority 2008, published 2011)
